# Assay results reported in the Kinase Knowledgebase extract (Sharma et al. 2016).
# Molecular target: MAPK14 (UniProt Q16539)
# Experiment: p38 Kinase Inhibition Assay
# Chain of MAPK14 (Q16539 whole entry, looked up): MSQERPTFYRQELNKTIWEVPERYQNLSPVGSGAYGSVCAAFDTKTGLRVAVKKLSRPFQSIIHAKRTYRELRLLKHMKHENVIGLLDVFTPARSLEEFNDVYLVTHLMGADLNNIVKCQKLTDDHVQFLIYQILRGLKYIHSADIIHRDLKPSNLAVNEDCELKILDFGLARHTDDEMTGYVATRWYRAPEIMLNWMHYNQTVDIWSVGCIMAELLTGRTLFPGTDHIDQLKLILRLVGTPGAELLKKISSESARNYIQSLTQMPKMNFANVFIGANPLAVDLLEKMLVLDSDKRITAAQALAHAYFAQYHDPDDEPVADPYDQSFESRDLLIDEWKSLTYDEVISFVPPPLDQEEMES
row,Structure (SMILES),IC50 [nM]
1,O=C(c1ccccc1)N1CCC(Cc2ccccc2)CC1,200 to 1500
2,O=CNc1ccc(C(=O)N2CCC(Cc3ccccc3)CC2)cc1,200 to 1500
3,O=C(c1ccccc1I)N1CCC(Cc2ccccc2)CC1,200 to 1500
4,O=C(c1ccccc1Br)N1CCC(Cc2ccccc2)CC1,200 to 1500
5,COc1cccc(OC)c1C(=O)N1CCC(Cc2ccccc2)CC1,200 to 1500
6,CC(=O)Nc1ccc(C(=O)N2CCC(Cc3ccccc3)CC2)cc1,200 to 1500
7,S=C(c1ccccc1)N1CCC(Cc2ccccc2)CC1,200 to 1500
8,Nc1ccc(C(=O)N2CCC(Cc3ccccc3)CC2)cc1,200 to 1500
9,CC1(Cc2ccccc2)CCN(C(=O)c2ccccc2Br)CC1,200 to 1500
10,CNc1ccccc1C(=O)N1CCC(Cc2ccccc2)CC1,200 to 1500

# The next lines start with the values.
row,IC50 [nM],Structure (SMILES)
1,200 to 1500,CN(C)c1ccc(C(=O)N2CCC(Cc3ccccc3)CC2)cc1
2,200 to 1500,COc1ccc(C(=O)N2CCC(Cc3ccccc3)CC2)c(OC)c1
3,200 to 1500,O=C(c1ccccc1O)N1CCC(Cc2ccccc2)CC1
4,200 to 1500,CN(C)c1cccc(C(=O)N2CCC(Cc3ccccc3)CC2)c1
5,200 to 1500,CN(C)c1ccc(C(=O)N2CCC(Cc3ccccc3)CC2)c(Cl)c1
6,200 to 1500,Cc1ccccc1C(=O)N1CCC(Cc2ccccc2)CC1
7,200 to 1500,O=C(c1ccccc1Cl)N1CCC(Cc2ccccc2)CC1
8,200 to 1500,CN(C)c1ccccc1C(=O)N1CCC(Cc2ccccc2)CC1
9,200 to 1500,CNc1ccc(C(=O)N2CCC(Cc3ccccc3)CC2)c(Cl)c1
10,200 to 1500,Nc1ccc(C(=O)N2CCC(Cc3ccccc3)CC2)c(Cl)c1
